Patent US6566359B1, “2,4,6-trimethyl-1,4-dihydro-pyridine-3,5-dicarboxylic acid esters as neuroprotective drugs” (Board of Supervisors of Louisiana State University and …, priority 2002, dated 2003)
Where “and” joins values, the source holds several entries; their conditions need not be identical. Equal entries are not always repeated.

Assays:
[1] = target: T1, cell-surface-type PAF receptor over-expressed in CHO-B cells (Cavia porcellus, UniProt P21556); assay: Competition for 3H-PAF binding to CHO-B cell homogenates
T1 construct: expressed in transfected cells; host or cells: Chinese hamster ovary cells: CHO-B (high expression) and CHO-A (mild expression), used as cell homogenates
T1 sequence (P21556 whole entry): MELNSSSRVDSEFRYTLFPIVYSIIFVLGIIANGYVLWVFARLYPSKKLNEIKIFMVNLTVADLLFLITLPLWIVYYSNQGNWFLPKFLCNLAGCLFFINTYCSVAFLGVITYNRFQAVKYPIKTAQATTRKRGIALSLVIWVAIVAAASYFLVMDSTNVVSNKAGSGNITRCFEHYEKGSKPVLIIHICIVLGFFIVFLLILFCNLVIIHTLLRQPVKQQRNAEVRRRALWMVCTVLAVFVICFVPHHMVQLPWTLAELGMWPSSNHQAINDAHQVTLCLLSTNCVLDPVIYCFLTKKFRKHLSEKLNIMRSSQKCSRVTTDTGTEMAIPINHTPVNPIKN
Procedure: (§1) Binding studies were performed on subcellular fractions of tissues obtained from rat brain cortex, according to procedures described in V. Marcheselli et al., “Distinct platelet-activating factor binding sites in synaptic endings and in intracellular membranes of rat cerebral cortex,” J. biol. Chem., vol. 265, pp. 9140-9145 (1990). Freshly dissected brain tissues were homogenized in ice-cold buffer (50 mM Tris-HCl, 2 mM EGTA, 5 mM PMSF, 250 mM sucrose, 7.4 pH). Subcellular fractions were obtained by differential centrifugation. The microsomal fraction was sedimented after 100,000×g for 1 hour centrifugation. In addition, three cell lines from Chinese hamster ovary (CHO) with varying expression of PAF receptors, CHO-A, CHO-B, and CHO-C cells (from Dr. Takao Shiizu, University of Tokyo, Tokyo, Japan) were cultured to the fourth-passage cells. These cells were cultured to confluence, then detached from their culturing flasks, and pelleted by rapid centrifugation (3,000 rpm, 10 min). Cellular pellets were homogenized in ice-cold buffer as described above. Freshly obtained microsomal fractions or CHO cellular homogenates were utilized for saturation, displacement, and competition studies using ^3H-PAF as the hot ligand, unlabeled-PAF to detect non-specific binding, and a LAU-0900 series compound to displace by competition ^3H-PAF bound to a receptor.
(§2) See B. Liu et al., “Implication of protein kinase C alpha in PAF-stimulated phospholipase D Activation in Chinese hamster ovary (CHO) cells expressing PAF receptor,” Biochem. Biophys. Res. Commun., vol.214, pp.418-423 (1995). […] Both the constants of inhibition (KI) and 50% of inhibitory activity (IC50) were significant at a low concentration of LAU-0903.

[2] = test system: COX-2 mRNA; assay: COX-2 mRNA expression after cryogenic injury (vasogenic cerebral edema), Northern blot; assay type: in vivo, Sprague-Dawley rats; conditions: rat
Procedure: Brain COX-2 gene expression is known to be enhanced as a result of injury as well as by seizures (Marcheselli and Bazan, 1996), and PAF receptors are involved in COX-2 expression (Bazan et al, 1994). To further test the LAU-0900 series compounds as PAF antagonists, the compounds were tested in an in vivo model for the potential blocking of injury-induced COX-2 induction. Adult Sprague-Dawley rats, 175 to 250 g body weight, were purchased from a commercial breeder (Charles River Laboratories, Wilmington, Mass.). One group of four rats received an intra-cerebroventricular injection of LAU-0903 (10 mg/kg in DMSO as a vehicle), 15 min before the generation of cerebral edema. Another group of four rats received an intraperitoneal injection of desxmethasone every 8 hr for a period of 24 hr prior to injury. Animals were immobilized by ether anesthesia, and vasogenic cerebral edema was generated by the application of a liquid nitrogen-cooled probe for 1 min on the parietal region of the skull. The rats were allowed to recover for either 2 or 6 hr before being decapitated to sample the brain. Total brain tissues were obtained, and total-RNA was extracted. The RNA was then assayed by Northern blot analysis for COX-2 mRNA. […] Autoradiography or phosphorimage quantification was performed.

[3] = target: T2, PAF receptor in CHO-A cells (moderately exp PAF-R) (Cavia porcellus, UniProt P21556); assay: Competition for 3H-PAF binding to CHO-A cell homogenates
T2 construct: expressed in transfected cells; host or cells: Chinese hamster ovary cells: CHO-B (high expression) and CHO-A (mild expression), used as cell homogenates
T2 sequence (P21556 whole entry): as above
Procedure: Binding studies were performed on subcellular fractions of tissues obtained from rat brain cortex, according to procedures described in V. Marcheselli et al., “Distinct platelet-activating factor binding sites in synaptic endings and in intracellular membranes of rat cerebral cortex,” J. biol. Chem., vol. 265, pp. 9140-9145 (1990). Freshly dissected brain tissues were homogenized in ice-cold buffer (50 mM Tris-HCl, 2 mM EGTA, 5 mM PMSF, 250 mM sucrose, 7.4 pH). Subcellular fractions were obtained by differential centrifugation. The microsomal fraction was sedimented after 100,000×g for 1 hour centrifugation. In addition, three cell lines from Chinese hamster ovary (CHO) with varying expression of PAF receptors, CHO-A, CHO-B, and CHO-C cells (from Dr. Takao Shiizu, University of Tokyo, Tokyo, Japan) were cultured to the fourth-passage cells. These cells were cultured to confluence, then detached from their culturing flasks, and pelleted by rapid centrifugation (3,000 rpm, 10 min). Cellular pellets were homogenized in ice-cold buffer as described above. Freshly obtained microsomal fractions or CHO cellular homogenates were utilized for saturation, displacement, and competition studies using ^3H-PAF as the hot ligand, unlabeled-PAF to detect non-specific binding, and a LAU-0900 series compound to displace by competition ^3H-PAF bound to a receptor. […]

[4] = test system: human COX-2 promoter; assay: IL-1β-induced COX-2 promoter-luciferase transcription in CV-1 cells; assay type: cell-based; conditions: 100 nM compound, 10 nM IL-1β
Procedure: (§3) To test the ability of LAU-0900 series compounds to inhibit COX-2 expression, a kidney cell line was transiently transfected with the 830-base-pair human COX-2 promoter construct (proximal to the transcription start site) fused to the luciferase gene as a reporter as described below.
(§4) Transfection of CV-1 cells with human COX-2promoterfused with LUC: C V-1 Cells (African green monkey kidney cell line, ATCC # CCL-17) were grown in DMEM-F12 (GIBCO-BRL, Rockville, Md.) supplemented with 10% FBS (fetal bovine serum) in 6-well plates. At 80% confluence, the cells were transfected with 10 μg human COX-2 promoter-LUC construct (containing 830 base pairs of the human COX-2 promoter (donated by Dr. Stephen Prescot, Huntsman Cancer Institute, Salt Lake City, Utah) using a liposomal transfection reagent (DOTAP, Roche Diagnostics, Gmbh, Mannheim, Germany). Promoterless β-galactosidase construct (Promega, Madison, Wis.) was co-transfected to assess transfection efficiency. Three hours after transfection at 37° C., the medium was removed, and the cells were washed with phonsphate-buffered saline solution, pH 7.2 (PBS; Gibco-BRL, Rockville Md. The plates were further incubated at 37° C. in complete medium DMEM-F12 with 10% FBS for about 8-10 hr. Before the addition of the inducers of COX-2, PAF (100 nM) or IL-1β (10 ng/ml), the CV-1-transfected cells were serum-starved for 8 hr at 37° C. After the addition of the inducers, the cells were incubated for 8-10 hr at 37° C. Then the medium was removed, the cells were washed with PBS, harvested, and frozen at −80° C. until used for assays.
(§5) To test the effectiveness of the LAU-0900 series compounds, the transfected cells were treated for 1 hr with 100 nM of various LAU-0900 series compounds before the addition of the inducers (either PAF or IL-1β, and the LAU-0900 compound remained in the medium throughout the incubation period.
(§6) Luciferase assay of transfected CV-1 cells: Frozen cells were homogenized in 300 μl luciferase assay buffer (“ALL”, Analytical Luminescence Laboratory, San Diego, Calif.), and cellular debris was collected as a pellet by centrifugation at 2800×g for 20 min at 4° C. Supernatants (20-30 μl) were normalized to 1 μg/ml of total protein content, and were mixed with 70-80 μl ALL buffer. Reactions were initiated by injection of 100 μl of 1 mM luciferin (Sigma Chemical Co., St. Louis, Mo.). The relative light units were determined by using an ALL luminometer that recorded over 20-second intervals.

[5] = target: intracellular type PAF receptor (rat brain microsomal preparations) (Rattus norvegicus, UniProt P46002); assay: Competition for 3H-PAF binding to rat brain cortex microsomal membranes; conditions: rat brain cortex microsomal preparation
Sequence of intracellular type PAF receptor (rat brain microsomal preparations) (P46002 whole entry): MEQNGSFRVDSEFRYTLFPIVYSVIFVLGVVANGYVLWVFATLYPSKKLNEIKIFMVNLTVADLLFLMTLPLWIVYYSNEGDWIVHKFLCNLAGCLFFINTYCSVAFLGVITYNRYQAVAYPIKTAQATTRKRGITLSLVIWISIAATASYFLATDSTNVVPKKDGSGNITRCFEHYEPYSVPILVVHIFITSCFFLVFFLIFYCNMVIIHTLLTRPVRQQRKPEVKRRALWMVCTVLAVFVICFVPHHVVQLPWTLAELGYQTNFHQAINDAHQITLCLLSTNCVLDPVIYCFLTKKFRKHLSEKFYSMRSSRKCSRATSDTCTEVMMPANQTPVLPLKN
Procedure: as §1

[6] = Evans Blue accumulation in brain cortex in vasogenic cerebral edema; assay type: in vivo, rat; conditions: LAU-0903 30 μg/kg intra-ventricularly 15 min before injury; dexamethasone 6.2 μg/kg i.p. every 8 hr for 24 hr; 2 hr and 12 hr after injury
[7] = test system: human COX-2 promoter; assay: PAF-induced COX-2 promoter-luciferase transcription in CV-1 cells; assay type: cell-based; conditions: 100 nM compound, 100 nM PAF
Procedure: as §3, §4, §5, §6

[8] = test system: CHO-C cells (do not exp PAF-R); assay: Competition for 3H-PAF binding to CHO-C cell homogenates
Procedure: as §1, §2

[9] = Middle cerebral artery occlusion (MCA-O) stroke model, infarct volume by TTC; assay type: in vivo, C57BL/6 mice; conditions: 30 mg/kg 1 hr after reperfusion following 1 hr of MCA-O
[10] = MCA-O with 21 days reperfusion, Cresil-Violet histology; assay type: in vivo, C57-bl/6 mice; conditions: 30 mg/kg i.p. once 1 hr after onset of reperfusion
Procedure: In a second group of experiments, C57-bl/6 mice were treated with either a sham procedure, or with 1 hr with MCA-O followed by a reperfusion period of 21 days. Cresil-violet staining was used to assess brain damage in brain slices obtained as above. […] (Data not shown.). […] (Data not shown).
In a third set of experiments, the MCA-O treated mice were injected once with the LAU-0900 series compounds (LAU-0901, LAU-0904, and LAU-0911; at 30 mg/kg) or vehicle 1 hr after the onset of reperfusion. The LAU-0900 compounds were solubilized in 45% 2-hydroxypropyl-β-cyclodextrine (Sigma Chemical Co.), and delivered intraperitoneally. The mice were reperfused for 21 days, and killed. Coronal sections of mouse brains were processed for histology, and stained with Cresil-Violet. Sections from individual animals were analyzed, with pictures of the right side (infarcted) of the brain compared to the left side, which show almost no damage.
(Data not shown). […] Almost normal morphology was found in the brains of the LAU-0900-treated animals, indicating a high degree of protection. (Data not shown), even though administered 1 hr after the initiation of reperfusion.

Row | SMILES | Significance of 3H-PAF displacement ([1]; CHO-B cell homogenates) | IC50 ([1]; CHO-B homogenates (heavily overexpress PAF-R)) | Inhibition of cryogenically induced COX-2 mRNA ([2]; 10 mg/kg intra-cerebroventricular 15 min before injury) | Duration of COX-2 mRNA inhibition after a single injection ([2]; 10 mg/kg intra-cerebroventricular) | KI ([3]; CHO-A homogenates) | IC50 ([3]; CHO-A homogenates (moderately express PAF-R)) | Inhibition of COX-2 transcription induced by IL-1β [4] | Competitive activity at 3H-PAF binding sites (curve profile) [5] | Effect on accumulation of Evans Blue in brain cortex [6] | Inhibition of COX-2 transcription induced by PAF [7] | KI ([8]; CHO-C homogenates) | IC50 ([8]; CHO-C homogenates (do not express PAF-R)) | Reduction of infarcted volume [9] | Protection from brain damage (Cresil-Violet histology) [10]
1 | COC(=O)C1=C(C)NC(C)=C(C(=O)OCCCSc2ccc(-n3ccnc3)cc2)C1C (stereo not shown) [LAU-0903, 2,4,6-Trimethyl-1,4-dihydro-pyridine-3,5-dicarboxylic acid 5-[3-(imidazol-1-yl-phenylsulphanyl)]-propyl-1-ester 3-methyl ester] | significant displacement | ~0.0538 nM and 0.0538 nM | more than 50% | up to 6 hours | No displacement | No displacement | inhibited | competitive activity at both binding sites | protective effect | inhibited | No displacement | No displacement | – | –
2 | COC(=O)C1=C(C)NC(C)=C(C(=O)OCCCOc2cc(OC)c(OC)c(OC)c2)C1C (stereo not shown) [LAU-0911, 2,4,6-Trimethyl-1,4-dihydro-pyridine-3,5-dicarboxylic acid 5-(3,4,5-trimethoxyphenoxy)-propyl-1-ester 3-methyl ester] | – | – | – | – | – | – | inhibited | – | – | inhibited | – | – | 40% | significant protection
